Active and inactive are the calls of the source. How the calls were made is not given here.
System: S. cerevisiae tim23-1 mutant growth, luminescence
Experiment: growth inhibition of tim23-1 mutant yeast, dose response, counter-screen for tim10-1 yeast inhibitor project, luminescence, uHTS hits (AID 504544)

Row | Compound | IC50
1 | Cc1ccc(/C(N)=N/OC(=O)C(C)c2ccc([N+](=O)[O-])cc2)cc1 (configuration not stated) | 41.9 µM
2 | CC(C)(C)OC(=O)N[C@@H](Cc1ccccc1)c1nnc(S(=O)(=O)Cc2cccc(F)c2)o1 | 2.28 µM
3 | N/C(Cc1ccc(Cl)cc1)=N\OC(=O)c1ccc2ccccc2c1 | 0.38 µM
4 | CN(CCCC(=O)O)c1ccc(N=Nc2ccc([N+](=O)[O-])cc2)cc1 | 11.6 µM
5 | COc1cc(N=c2ssnc2Cl)c(OC)cc1Cl | 3.77 µM
6 | O=C(c1ccc2c3n(nc2c1)-c1ccccc1CO3)N1CCCCC1 | 9.67 µM
7 | O=c1c2ccccc2nc(/C=C/c2ccc([N+](=O)[O-])o2)n1CCCO | 5.81 µM
8 | O=C(O)/C=C/C(=O)c1ccc2c(c1)CCc1ccccc1-2 | 5.09 µM
9 | N/C(=N\OC(=O)c1ccc(Cl)cc1)c1ccc(Cl)cc1 | > 100 µM (inactive)
10 | O=C(N/N=C/c1ccc[nH]1)c1cc(-c2ccc(Cl)cc2)nc2ccccc12 | 8.98 µM
11 | O=C(NNC(=S)Nc1cccc(C(F)(F)F)c1)c1cccc(Cl)c1 | 25.5 µM
12 | NNc1nc(-c2ccccc2)c2cc(Br)ccc2n1 | 21.8 µM
13 | Cc1cc([N+](=O)[O-])ccc1-c1ccc(C2Nc3ccccc3C(=O)N2O)o1 (configuration not stated) | 18.1 µM
14 | CCOC(=O)/C=C/C(=O)Nc1cccc([N+](=O)[O-])c1 | 2.61 µM
15 | Nc1nc(-c2ccc(Br)cc2)cs1 | 17.6 µM
16 | CCCCc1ccc(NC(=S)Nc2ccc(Nc3ccc(OC)cc3)cc2)cc1 | 30.1 µM
17 | Cc1ccc(F)c([C@H]2C3C=CCC(c4ccccc4)C3C(=O)N2Cc2ccccc2)c1 (some centres not stated) | 14.7 µM
18 | C=CC(=O)Oc1ccc(N2Cc3ccccc3C2=O)cc1 | 3.33 µM
19 | Fc1c(F)c(C(F)(F)F)c(F)c(F)c1N/N=C\c1cccs1 | 7.37 µM
20 | COc1ccc(NC2CCN(C3CC(=O)N(c4ccc(F)c(Cl)c4)C3=O)CC2)cc1 (configuration not stated) | 5.66 µM
21 | O=C1C2C3C=CC(CO)(O3)C2C(=O)N1c1ccccc1-c1ccccc1 (configuration not stated) | 1.83 µM

Row | Compound | IC50
22 | COc1cc(OC)c(C(=O)O/N=C(\N)c2ccc(C)cc2)cc1OC | 6.94 µM
23 | CC(=O)N1CCN(c2cc(N3CCc4ccccc4C3)c(F)cc2[N+](=O)[O-])CC1 | 34.7 µM
24 | CC(C)(C)c1ccc(CN2N=Nc3ccccc3S2(=O)=O)cc1 | 5.66 µM
25 | COc1ccc(-c2sc3cc4c(cc3c2C#CC2(N)CCCCC2)OCO4)cc1 | 9.36 µM
26 | CCOC(=O)c1c(OCC)[nH]c2c1cc(O)c1ccccc12 | 17.1 µM
27 | Nc1nc(N)c(C=Nc2ccc(Br)cc2)c(Nc2ccc(Br)cc2)n1 | 14 µM
28 | CCOC(=O)c1ccc(NC(=O)CC2OCCN(CC)C2=O)cc1 (configuration not stated) | 2.02 µM
29 | CC1(CC(=O)N/N=C/c2ccc(OCc3ccc(Cl)cc3Cl)cc2)OCCCO1 | 4.3 µM
30 | CCOc1ccccc1N1C(=O)CC(Sc2n[nH]c(-c3ccccc3)n2)C1=O (configuration not stated) | 4.1 µM
31 | CC(C)C(=O)N1CCN(c2ccccc2NC(=O)c2ccc([N+](=O)[O-])o2)CC1 | 8.89 µM
32 | COc1ccc(Br)cc1[C@H]1[C@@H]2C=CCC[C@@]2(C)C(=O)N1Cc1ccccc1 | 14.3 µM
33 | Cc1ccc(/C(N)=N/OC(=O)c2ccc3c(c2)OCO3)cc1 | 15.5 µM
34 | Cc1onc(-c2ccc3c(c2)OCO3)c1-c1ccc2[nH]ccc2c1 | 10.7 µM
35 | COc1ccc(/C(N)=N/OC(=O)c2ccc3c(c2)OCO3)cc1 | 7.52 µM
36 | N/C(=N\OC(=O)CCCc1ccccc1)c1ccccc1Cl | 14 µM
37 | CC[C@@H]1CC=C[C@H]2[C@H]1C(=O)N(Cc1ccccc1)[C@H]2c1ccoc1 | 7.42 µM
38 | Cc1ccc(NC(=S)Nc2ccc(Cl)c(Cl)c2)c(OC(F)F)c1 | 14.4 µM
39 | CCCCCCCCCCOC(=O)Cn1c(COc2ccccc2OC)[n+](C)c2ccccc21 | 12 µM
40 | O=C(NC(=S)NNC(=O)c1ccccc1[N+](=O)[O-])c1ccc(Br)cc1 | 12.5 µM
41 | N=C(N)c1ccc(/C=C/c2ccc(C(=N)N)cc2O)cc1 | 6.44 µM
42 | CC(=O)c1ccc(NC(=S)NC(C)c2ccc(Cl)cc2Cl)cc1 (configuration not stated) | 13.8 µM

Row | Compound | IC50
43 | CN=C(Nc1cc(Cl)ccc1Cl)SC1CC(=O)N(c2ccc(C(=O)OC)cc2)C1=O (configuration not stated) | 15.4 µM
44 | Nc1ccccc1C(=O)/C=C/c1ccc2c(c1)OCO2 | 18.9 µM
45 | N/C(=N\OC(=O)c1ccc(F)cc1)c1ccc(Br)cc1 | 3.14 µM
46 | O=C(Nc1cccnc1)c1cn(-c2ccccc2)nc1-c1cccs1 | 28.4 µM
47 | CCOC(=O)c1ccc(N2C(=O)C=CC2=O)cc1 | 0.48 µM
48 | COc1ccc(Cl)cc1NC(=O)CN(C)C(=O)C12CC3CC(CC(Cl)(C3)C1)C2 | 23.8 µM
49 | N/C(Cc1ccc(Cl)cc1Cl)=N\OC(=O)Cc1ccc(Cl)cc1 | 1.39 µM
50 | Cn1c(NCCCO)nc2c(c1=O)C1(CCCCC1)Cc1ccccc1-2 | 8.71 µM
51 | COc1ccc(/C(C)=N/NC(=S)NCCc2ccccc2)cc1 | 19.5 µM
52 | COc1ccc(-c2[nH]ncc2N=Nc2ccccc2)cc1 | 9.41 µM
53 | O=c1c2ccccc2[se]n1-c1ccccc1 | 0.88 µM
54 | CCCn1c(CC)nc([N+](=O)[O-])c1S(=O)(=O)c1ccccc1 | 6.66 µM
55 | O=C(OCn1ncc(Br)c(Br)c1=O)c1ccc(F)cc1 | 1.78 µM
56 | c1ccc(Nc2cccc(Nc3ccccc3)n2)cc1 | 9.11 µM
57 | Cc1cc(/C=C\c2ccc3cc(N(C)C)ccc3[n+]2C)c(C)n1-c1ccccc1 | 5.95 µM
58 | Cn1c(Cl)cnc1C1CC(=O)c2cc(Cl)ccc2O1 (configuration not stated) | 4.44 µM
59 | CNC(=O)c1nnsc1S(=O)(=O)c1ccc(Cl)cc1 | 11.5 µM
60 | O=C(Nc1cccc(N2C(=O)C=CC2=O)c1)c1cccs1 | 2.52 µM
61 | Cn1c(/C=C/c2ccc([N+](=O)[O-])o2)nc2ccccc2c1=O | 6.28 µM
62 | CCOc1ccc(-n2cc(-c3ccccc3)c3c(=O)[nH]cnc32)cc1 | 13.8 µM
63 | N#C/C(=N/Nc1ccc(OC(F)(F)F)cc1)C(N)=S | 1.31 µM

Row | Compound | IC50
64 | c1ccc(Nc2cccc(Nc3ccccc3)c2)cc1 | 11 µM
65 | O=c1oc2ccccc2c(O)c1/C=C1\C=Nc2ccccc21 | 5.55 µM
66 | COc1ccc(C(=O)O/N=C(\N)Cc2ccc(Cl)c(Cl)c2)cc1OC | 1.38 µM
67 | C[C@@H]1CC=C[C@H]2[C@H]1C(=O)N(Cc1ccccc1)[C@H]2c1ccc(-c2ccoc2)cc1F | 12.9 µM
68 | COc1ccc2cc3cc(C(=O)NCCN4CCc5ccccc5C4)oc3nc2c1 | 3.34 µM
69 | CCN(CC)C1CC(=O)N(c2cccc(Cl)c2)C1=O (configuration not stated) | 2.46 µM
70 | Cc1ccc(CNC(=O)c2ccc(Cn3nc(C)c(Cl)c3C)o2)cc1 | 17.4 µM
71 | Fc1ccccc1CNC(=S)Nc1cccc(C(F)(F)F)c1 | 11.8 µM
72 | CCOC(=O)/C=C/C(=O)OCC(=O)Nc1ccc([N+](=O)[O-])cc1 | 7.49 µM
73 | O=C1CS(=O)(=O)N(Cc2cccc(F)c2)c2ccc(Br)cc21 | 12.6 µM
74 | Cc1ccc(OCC(=O)O/N=C(\N)Cc2ccc(Cl)cc2)cc1 | 61.9 µM
75 | COc1cc(C(=O)Nc2ccc(Cl)c(C(F)(F)F)c2)cc(OC)c1OC | 33.3 µM
76 | Cc1nonc1C1CCCN1C(=O)c1cc(COc2cccc(C(F)(F)F)c2)on1 (configuration not stated) | 19.2 µM
77 | Cc1cc(C)cc(N2C(=O)CC(Sc3nnnn3-c3ccccc3)C2=O)c1 (configuration not stated) | 1.26 µM
78 | O=C(/C=C\c1ccc(-c2ccccc2)o1)c1ccccc1 | 3.01 µM
79 | O=C(NC(=S)Nc1ccccc1N1CCCC1)c1ccc([N+](=O)[O-])cc1 | 19.3 µM
80 | COc1cc(/C=C/c2ccc3cccc(O)c3n2)c(Br)cc1O | 18.2 µM
81 | CCOC(=O)c1c(CSc2ccc(C)cc2)n(C)c2cc(Br)c(O)c(CN(C)C)c12 | 19.9 µM
82 | Cc1ccc(S(=O)(=O)c2nc(S(C)(=O)=O)sc2N2CCCCC2C)cc1 (configuration not stated) | 11.7 µM

From PubChem BioAssay AID504544 (Sanford-Burnham Center for Chemical Genomics, 2011)
